Measured values published in patent US12605374B2, “Methods for drug screening and compositions useful for the inhibition of cell proliferation and/or cell survival” (The Brigham and Women's Hospital, Inc., priority 2019, dated 2026).

Key:
[1] = target: T1, recombinant human Topoisomerase I (Homo sapiens, UniProt P11387); assay: Topoisomerase I and DNA binding gel electrophoresis assay; type: biochemical; conditions: concentrations up to 100 mM (so in the source), versus DMSO
T1 construct: purchased TopoGEN, Inc. TG2005H
T1 sequence (P11387 1-765): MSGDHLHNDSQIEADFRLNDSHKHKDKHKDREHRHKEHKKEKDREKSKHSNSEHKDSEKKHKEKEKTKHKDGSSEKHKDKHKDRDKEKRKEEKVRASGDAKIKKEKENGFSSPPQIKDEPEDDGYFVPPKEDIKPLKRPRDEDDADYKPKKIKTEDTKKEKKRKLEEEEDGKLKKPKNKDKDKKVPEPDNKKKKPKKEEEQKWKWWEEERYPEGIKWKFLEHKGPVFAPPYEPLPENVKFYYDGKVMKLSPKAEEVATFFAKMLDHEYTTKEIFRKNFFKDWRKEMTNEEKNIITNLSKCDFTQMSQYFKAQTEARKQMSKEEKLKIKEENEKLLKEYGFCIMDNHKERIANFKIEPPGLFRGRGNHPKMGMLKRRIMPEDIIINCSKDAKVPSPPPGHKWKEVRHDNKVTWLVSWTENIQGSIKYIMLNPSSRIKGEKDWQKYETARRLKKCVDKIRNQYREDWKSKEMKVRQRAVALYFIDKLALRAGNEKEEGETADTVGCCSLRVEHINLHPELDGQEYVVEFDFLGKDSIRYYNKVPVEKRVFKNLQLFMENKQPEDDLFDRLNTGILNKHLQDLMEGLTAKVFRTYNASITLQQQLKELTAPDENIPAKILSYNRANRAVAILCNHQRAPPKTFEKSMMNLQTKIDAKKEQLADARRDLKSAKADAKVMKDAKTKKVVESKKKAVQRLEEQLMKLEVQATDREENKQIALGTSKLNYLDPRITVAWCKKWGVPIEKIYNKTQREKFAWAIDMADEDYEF
Protocol: FIG. 12: Topoisomerase I and DNA binding assay for DA5. The effect of DA5 on Topoisomerase-mediated DNA unwinding is measured through a gel electrophoresis assay (see Methods).
0.5 ug of pHOT-1 supercoiled DNA (TopoGEN, Inc. TG2030-2) was combined with 2× Topoisomerase I assay buffer (50 mM Tris-HCL (ph7.9), 1 mM EDTA, 1 mM DTT, 20% (v/v) glycerol, 50 mM NaCl), nuclease free water and either DMSO vehicle control, m-AMSA positive control (100-1000 uM; TopoGEN, Inc. […] TG2005H) was added to treatments corresponding to lanes 3-12 with 2 ul of dilution buffer (5 mM Tris-HCL (pH 7.9), 1 mM EDTA, 1 mM DTT, 50% (v/v) glycerol, 500 mM NaCl) added to control treatments lacking enzyme (lanes 2, 13 and 14). Reactions were mixed and incubated at 37° C. for 30 minutes. Reactions were terminated with the addition of 20 ul nuclease free water and 50 ul of 1-butanol (water-saturated) followed by vortex and centrifugation at 13,000 rpm for 1 minute. The lower aqueous phase was removed and added to 50 ul chloroform/isoamyl alcohol (24/1) and 50 ul of 2×STEB buffer (40% (w/v) sucrose, 100 mM Tris-HCL (pH 8), 1 mM EDTA, 0.5 mg/ml bromophenol blue) followed by mixing and centrifugation at 13,000 rpm for 1 minute. […] The gel was stained with ethidium bromide for 15 minutes followed by de-staining in distilled water for 10 minutes. Gels were exposed and images acquired using the iBrightFL1000 gel documentation system (Invitrogen).

zebrafish embryos = assay: Respiration rate analysis (Seahorse XF24 oxygen consumption); type: in vivo; conditions: embryos from 5 hpf, versus DMSO control
Protocol: Analysis of embryonic respiration was performed using a Seahorse XF24 analyzer (Agilent). Embryos at 5 hours post fertilization were arrayed in E3 media at 3 per well in a 24-well standard Seahorse plate using an isolating mesh (as in Stackley et al^72). Each plate contained four replicates of each indicated compound of interest, as well as 4 control wells receiving the equivalent DMSO as contained in the indicated compound solution, and 4 wells with no embryos present to act as a baseline for oxygen content of the media. The sample baseline was read for 5 cycles (3 minute mix, 2 minute wait, 5 minute measure), then compounds were introduced in a single 40-cycle injection phase (3 minute mix, 2 minute wait, 5 minute measure). Measurement data were exported using Seahorse software (Agilent) and averaged over 3 experimental days.

Structure (SMILES) | effect on Topoisomerase-mediated DNA unwinding (gel electrophoresis) [1] | respiration rate (oxygen consumption rate) (zebrafish embryos)
CC[C@@]1(O)C(=O)OCc2c1cc1n(c2=O)Cc2cc3ccccc3nc2-1 [Camptothecin, reference compound] | dose-dependent effect on the amount of circular DNA present | –
CC[C@@H]1/C=C/C=C/C[C@H](C)[C@H](O)[C@](C)(O)C(=O)[C@H](C)[C@@H](O)[C@H](C)C(=O)[C@H](C)[C@@H](O)[C@H](C)/C=C/C(=O)O[C@H]2[C@@H](C)[C@@H](CC1)O[C@@]1(CC[C@@H](C)[C@@H](C[C@H](C)O)O1)[C@@H]2C [oligomycin A, reference compound] | – | exponential reduction in respiration rate stabilizing at a baseline rate
